Data taken from US12139520B2 (priority 2020, dated 2024).
Bridge positions count the residues as written; N and C are the ends. Square brackets hold non-standard residues; d marks the D form. Peptide text beside a SMILES is read from it. Hyp = O=C(O)[C@@H]1C[C@@H](O)CN1; Cit = NC(=O)NCCC[C@H](N)C(=O)O

What was measured:
hAMY3 receptor = target: T1, hAMY3 receptor (Homo sapiens, UniProt O60896+P30988); assay: cAMP assay for in vitro receptor activation, hAMY3-R; type: cell-based; conditions: cAMP assay, hAMY3 receptor; read-out: hAMY3R EC50
T1 sequence (P30988 25-474): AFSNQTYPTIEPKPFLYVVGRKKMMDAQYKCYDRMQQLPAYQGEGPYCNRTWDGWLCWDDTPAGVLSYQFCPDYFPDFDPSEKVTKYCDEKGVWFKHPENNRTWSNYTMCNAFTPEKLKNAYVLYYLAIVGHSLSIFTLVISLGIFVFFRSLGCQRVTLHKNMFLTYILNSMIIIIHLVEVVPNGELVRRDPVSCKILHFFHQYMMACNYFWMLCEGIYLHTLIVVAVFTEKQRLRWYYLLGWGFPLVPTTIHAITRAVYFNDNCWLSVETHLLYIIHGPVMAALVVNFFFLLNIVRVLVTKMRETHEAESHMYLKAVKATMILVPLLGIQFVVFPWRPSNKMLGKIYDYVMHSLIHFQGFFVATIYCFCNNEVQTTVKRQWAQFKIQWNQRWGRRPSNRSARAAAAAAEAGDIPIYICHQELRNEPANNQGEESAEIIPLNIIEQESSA
T1 sequence (O60896 24-148 partner): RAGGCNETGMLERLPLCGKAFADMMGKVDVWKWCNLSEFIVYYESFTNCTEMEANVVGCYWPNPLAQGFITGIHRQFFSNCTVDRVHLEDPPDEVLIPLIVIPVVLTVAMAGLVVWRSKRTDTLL
In short: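 Receptor activation was measured as cAMP accumulation in a monoclonal cell line stably overexpressing hAMY3. Stimulation with graded doses lasted 30 min at room temperature in the presence of 0.5 mM IBMX, with human amylin as positive control.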

[1] = Physical stability of peptide analogues (Thioflavin T fibrillation); type: physicochemical; conditions: maximum ThT signal normalized between hAMY maximum and buffer background; 40° C., shaking, four days; pH 7 per table title
In short: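 ThT fluorescence (450 nm excitation, 480 nm emission; 4 μM dye) was read every 10 min over four days at 40° C under 700 rpm shaking stress, after 1 h in pH 4 acetate or pH 7 phosphate (50 mM). Peak smoothed signal expressed as percent, scaled between buffer background and hAMY maximum.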

hAM1 receptor = hAM1 receptor (Homo sapiens, UniProt O60895+Q16602); assay: cAMP assay for in vitro receptor activation, hAM1-R; type: cell-based; conditions: cAMP assay, hAM1 receptor; read-out: hAM1R EC50
hAM1 receptor, sequence (Q16602 23-461): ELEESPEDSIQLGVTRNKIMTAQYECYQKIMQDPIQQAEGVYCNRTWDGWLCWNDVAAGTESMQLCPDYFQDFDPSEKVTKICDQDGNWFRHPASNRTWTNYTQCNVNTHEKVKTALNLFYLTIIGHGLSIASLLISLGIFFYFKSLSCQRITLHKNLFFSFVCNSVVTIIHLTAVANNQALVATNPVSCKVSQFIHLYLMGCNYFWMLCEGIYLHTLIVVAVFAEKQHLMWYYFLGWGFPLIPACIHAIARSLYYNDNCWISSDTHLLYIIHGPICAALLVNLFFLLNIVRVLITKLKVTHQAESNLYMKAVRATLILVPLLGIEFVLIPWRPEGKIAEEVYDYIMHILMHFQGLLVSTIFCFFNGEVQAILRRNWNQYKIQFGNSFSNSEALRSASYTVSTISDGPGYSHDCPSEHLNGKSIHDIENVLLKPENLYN
hAM1 receptor, sequence (O60895 43-175 partner): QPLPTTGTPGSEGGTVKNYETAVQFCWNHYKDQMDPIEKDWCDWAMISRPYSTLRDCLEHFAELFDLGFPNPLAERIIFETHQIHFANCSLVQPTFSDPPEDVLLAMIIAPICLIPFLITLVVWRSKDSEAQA
In short: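 Read-out is intracellular cAMP as a measure of receptor activation. Cells stably overexpressing hAM1 were subcloned to a monoclonal line, then thawed and seeded at 8000 cells/well in DPBS with 0.05% casein and the phosphodiesterase inhibitor IBMX at 0.5 mM.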

EC50 (hAMY3 receptor) | Max ThT signal (%) [1] | EC50 (hAM1 receptor) | SMILES
0.014 nM | 9.550% | > 5000 nM | CC[C@H](C)[C@H](NC(=O)[C@H](CCC(N)=O)NC(=O)[C@H](Cc1c[nH]cn1)NC(=O)[C@H](C)NC(=O)[C@H](CC(C)C)NC(=O)[C@H](CCCNC(N)=O)NC(=O)[C@H](CCC(N)=O)NC(=O)[C@@H](NC(=O)[C@@H](NC(=O)[C@@H]1CSSC[C@H](NC(=O)[C@@H](N)CCCCN)C(=O)N[C@@H](CC(N)=O)C(=O)N[C@@H]([C@@H](C)O)C(=O)N[C@@H](C)C(=O)N[C@@H]([C@@H](C)O)C(=O)N1)[C@@H](C)O)C(C)C)C(=O)N[C@@H](Cc1ccc(O)cc1)C(=O)N[C@@H](CCC(N)=O)C(=O)N[C@@H](Cc1ccccc1)C(=O)N[C@H](C(=O)N[C@@H](CC(=O)O)C(=O)N[C@@H](CCCCN)C(=O)N[C@@H](CC(=O)O)C(=O)N[C@@H](CCCCN)C(=O)N[C@@H](CC(=O)O)C(=O)N[C@@H](CC(N)=O)C(=O)N[C@H](C(=O)N[C@@H](C)C(=O)N[C@@H](C)C(=O)N1CCC[C@H]1C(=O)N[C@H](C(=O)N[C@@H](CC(N)=O)C(=O)N[C@H](C(=O)NCC(=O)N[C@@H](CO)C(=O)N[C@@H](CC(N)=O)C(=O)NCC(=O)N1C[C@H](O)C[C@H]1C(N)=O)C(C)C)[C@@H](C)O)C(C)C)[C@@H](C)O [compound 262] (H-KCNTATCTVQ[Cit]LAHQIYQFTDKDKDNVAAPTNVGSNG[Hyp]-NH2; disulfide 2-7; N-terminus assumed)
0.091 nM | 17.400% | > 5000 nM | CC[C@H](C)[C@H](NC(=O)[C@H](CCC(N)=O)NC(=O)[C@H](Cc1c[nH]cn1)NC(=O)[C@H](C)NC(=O)[C@H](CC(C)C)NC(=O)[C@H](Cc1c[nH]c2ccccc12)NC(=O)[C@H](CCC(N)=O)NC(=O)[C@@H](NC(=O)[C@@H](NC(=O)[C@@H]1CSSC[C@H](NC(=O)CN)C(=O)N[C@@H](CCCNC(=N)N)C(=O)N[C@@H]([C@@H](C)O)C(=O)NCC(=O)N[C@@H]([C@@H](C)O)C(=O)N1)[C@@H](C)O)C(C)C)C(=O)N[C@@H](Cc1ccc(O)cc1)C(=O)N[C@@H](CCC(N)=O)C(=O)N[C@@H](Cc1ccccc1)C(=O)N[C@H](C(=O)N[C@@H](CC(=O)O)C(=O)N[C@@H](CCCCN)C(=O)N[C@@H](CC(=O)O)C(=O)N[C@@H](CCCCN)C(=O)N[C@@H](CC(=O)O)C(=O)N[C@@H](CC(N)=O)C(=O)N[C@H](C(=O)N[C@@H](C)C(=O)N1CCC[C@H]1C(=O)N[C@@H](CCCNC(=N)N)C(=O)N[C@H](C(=O)N[C@@H](CCCCN)C(=O)N[C@H](C(=O)NCC(=O)N1CCC[C@H]1C(=O)N[C@@H](CCC(N)=O)C(=O)NCC(=O)N[C@@H](Cc1ccc(O)cc1)C(N)=O)C(C)C)[C@@H](C)O)C(C)C)[C@@H](C)O [compound 354] (H-GCRTGTCTVQWLAHQIYQFTDKDKDNVAPRTKVGPQGY-NH2; disulfide 2-7; N-terminus assumed)
0.09 nM | 3.600% | > 5000 nM | CC(C)C[C@H](NC(=O)[C@H](Cc1c[nH]c2ccccc12)NC(=O)[C@H](CCC(N)=O)NC(=O)[C@@H](NC(=O)[C@@H](NC(=O)[C@@H]1CSSC[C@H](NC(=O)CN)C(=O)N[C@@H](CCCNC(=N)N)C(=O)N[C@@H](Cc2ccccc2)C(=O)NCC(=O)N[C@@H]([C@@H](C)O)C(=O)N1)[C@@H](C)O)C(C)C)C(=O)N[C@@H](C)C(=O)N[C@@H](Cc1c[nH]cn1)C(=O)N[C@@H](Cc1ccccc1)C(=O)N[C@@H](CC(C)C)C(=O)N[C@@H](Cc1ccc(O)cc1)C(=O)N[C@@H](CCC(N)=O)C(=O)N[C@@H](Cc1ccccc1)C(=O)N[C@H](C(=O)N[C@@H](CC(=O)O)C(=O)N[C@@H](CCCCN)C(=O)N[C@@H](CC(=O)O)C(=O)N[C@@H](CCCCN)C(=O)N[C@@H](CC(=O)O)C(=O)N[C@@H](CC(N)=O)C(=O)N[C@H](C(=O)N[C@@H](C)C(=O)N1CCC[C@H]1C(=O)N[C@@H](CCCNC(=N)N)C(=O)N[C@H](C(=O)N[C@@H](CC(N)=O)C(=O)N[C@H](C(=O)NCC(=O)N[C@@H](CO)C(=O)N[C@@H](CC(N)=O)C(=O)N[C@H](C(=O)N[C@@H](Cc1ccc(O)cc1)C(N)=O)[C@@H](C)O)C(C)C)[C@@H](C)O)C(C)C)[C@@H](C)O [compound 327] (H-GCRFGTCTVQWLAHFLYQFTDKDKDNVAPRTNVGSNTY-NH2; disulfide 2-7; N-terminus assumed)

The remaining lines, values behind:

SMILES | EC50 (hAMY3 receptor) | Max ThT signal (%) [1] | EC50 (hAM1 receptor)
CC[C@H](C)[C@H](NC(=O)[C@H](CCC(N)=O)NC(=O)[C@H](Cc1c[nH]cn1)NC(=O)[C@H](C)NC(=O)[C@H](CC(C)C)NC(=O)[C@H](CCCNC(N)=O)NC(=O)[C@H](CCC(N)=O)NC(=O)[C@@H](NC(=O)[C@@H](NC(=O)[C@@H]1CSSC[C@H](NC(=O)CN)C(=O)N[C@@H](CCCNC(=N)N)C(=O)N[C@@H]([C@@H](C)O)C(=O)NCC(=O)N[C@@H]([C@@H](C)O)C(=O)N1)[C@@H](C)O)C(C)C)C(=O)N[C@@H](Cc1ccc(O)cc1)C(=O)N[C@@H](CCC(N)=O)C(=O)N[C@@H](Cc1ccccc1)C(=O)N[C@H](C(=O)N[C@@H](CC(=O)O)C(=O)N[C@@H](CCCCN)C(=O)N[C@@H](CC(=O)O)C(=O)N[C@@H](CCCCN)C(=O)N[C@@H](CC(=O)O)C(=O)N[C@@H](CC(N)=O)C(=O)N[C@H](C(=O)N[C@@H](C)C(=O)N1CCC[C@H]1C(=O)N[C@@H](CCCNC(=N)N)C(=O)N[C@@H](CO)C(=O)N[C@@H](CCCCN)C(=O)N[C@H](C(=O)NCC(=O)N1CCC[C@H]1C(=O)N[C@@H](CCC(N)=O)C(=O)NCC(=O)N[C@@H](Cc1ccc(O)cc1)C(N)=O)C(C)C)C(C)C)[C@@H](C)O [compound 285] (H-GCRTGTCTVQ[Cit]LAHQIYQFTDKDKDNVAPRSKVGPQGY-NH2; disulfide 2-7; N-terminus assumed) | 0.157 nM | 31.200% | > 5000 nM
CC[C@H](C)[C@H](NC(=O)[C@H](CCC(N)=O)NC(=O)[C@H](Cc1c[nH]cn1)NC(=O)[C@H](C)NC(=O)[C@H](CC(C)C)NC(=O)[C@H](Cc1c[nH]c2ccccc12)NC(=O)[C@H](CCC(N)=O)NC(=O)[C@@H](NC(=O)[C@@H](NC(=O)[C@@H]1CSSC[C@H](NC(=O)[C@@H](N)CCCCN)C(=O)N[C@@H](CC(N)=O)C(=O)N[C@@H]([C@@H](C)O)C(=O)N[C@@H](C)C(=O)N[C@@H]([C@@H](C)O)C(=O)N1)[C@@H](C)O)C(C)C)C(=O)N[C@@H](Cc1ccc(O)cc1)C(=O)N[C@@H](CCC(N)=O)C(=O)N[C@@H](Cc1ccccc1)C(=O)N[C@H](C(=O)N[C@@H](CC(=O)O)C(=O)N[C@@H](CCCCN)C(=O)N[C@@H](CC(=O)O)C(=O)N[C@@H](CCCCN)C(=O)N[C@@H](CC(=O)O)C(=O)N[C@@H](CC(N)=O)C(=O)N[C@H](C(=O)N[C@@H](C)C(=O)N1CCC[C@H]1C(=O)N[C@H](C(=O)N[C@@H](CC(N)=O)C(=O)N[C@H](C(=O)NCC(=O)N[C@@H](CO)C(=O)N[C@@H](CC(N)=O)C(=O)NCC(=O)N1C[C@H](O)C[C@H]1C(N)=O)C(C)C)[C@@H](C)O)C(C)C)[C@@H](C)O [compound 319] (H-KCNTATCTVQWLAHQIYQFTDKDKDNVAPTNVGSNG[Hyp]-NH2; disulfide 2-7; N-terminus assumed) | 0.018 nM | 3.900% | > 5000 nM
CC[C@H](C)[C@H](NC(=O)[C@H](C)NC(=O)[C@H](Cc1c[nH]cn1)NC(=O)[C@H](C)NC(=O)[C@H](CC(C)C)NC(=O)[C@H](CCCNC(=N)N)NC(=O)[C@H](CCC(N)=O)NC(=O)[C@@H](NC(=O)[C@@H](NC(=O)[C@@H]1CSSC[C@H](NC(=O)[C@@H](N)CCCCN)C(=O)N[C@@H](CC(N)=O)C(=O)N[C@@H]([C@@H](C)O)C(=O)N[C@@H](C)C(=O)N[C@@H]([C@@H](C)O)C(=O)N1)[C@@H](C)O)C(C)C)C(=O)N[C@@H](Cc1ccc(O)cc1)C(=O)N[C@@H](CCC(N)=O)C(=O)N[C@@H](Cc1ccccc1)C(=O)N[C@H](C(=O)N[C@@H](CC(=O)O)C(=O)N[C@@H](CCCCN)C(=O)N[C@@H](CC(=O)O)C(=O)N[C@@H](CCCCN)C(=O)N[C@@H](CC(=O)O)C(=O)N[C@@H](CC(N)=O)C(=O)N[C@H](C(=O)N[C@@H](C)C(=O)N1CCC[C@H]1C(=O)N1CCC[C@H]1C(=O)N[C@H](C(=O)N[C@@H](CC(N)=O)C(=O)N[C@H](C(=O)NCC(=O)N[C@@H](CO)C(=O)N[C@@H](CC(N)=O)C(=O)NCC(=O)N1C[C@H](O)C[C@H]1C(N)=O)C(C)C)[C@@H](C)O)C(C)C)[C@@H](C)O [compound 13] (H-KCNTATCTVQRLAHAIYQFTDKDKDNVAPPTNVGSNG[Hyp]-NH2; disulfide 2-7; N-terminus assumed) | 0.007 nM | 5.000% | > 5000 nM
